From paper PMC6155631, “Immobilized Trienzymatic System with Enhanced Stabilization for the Biotransformation of Lactose” (Molecules : A Journal of Synthetic Chemistry and Natural …, 2017)

Target: T1, β-galactosidase from Bacillus circulans (Biolacta N-5) (Niallia circulans, UniProt E5RWQ2)
T1 construct: gene bga; commercial Biolacta N-5 (Daiwa Kasei), partially purified; several isoforms, called monomeric
Test: batch hydrolysis, HPLC
Type: biochemical
Settings: soluble enzyme together with P1 and P2; Mozzarella whey lactose, 50 °C, 6 h
Text: batch hydrolysis, HPLC on β-galactosidase from Bacillus circulans (Biolacta N-5)

T1 sequence (E5RWQ2 24-1737): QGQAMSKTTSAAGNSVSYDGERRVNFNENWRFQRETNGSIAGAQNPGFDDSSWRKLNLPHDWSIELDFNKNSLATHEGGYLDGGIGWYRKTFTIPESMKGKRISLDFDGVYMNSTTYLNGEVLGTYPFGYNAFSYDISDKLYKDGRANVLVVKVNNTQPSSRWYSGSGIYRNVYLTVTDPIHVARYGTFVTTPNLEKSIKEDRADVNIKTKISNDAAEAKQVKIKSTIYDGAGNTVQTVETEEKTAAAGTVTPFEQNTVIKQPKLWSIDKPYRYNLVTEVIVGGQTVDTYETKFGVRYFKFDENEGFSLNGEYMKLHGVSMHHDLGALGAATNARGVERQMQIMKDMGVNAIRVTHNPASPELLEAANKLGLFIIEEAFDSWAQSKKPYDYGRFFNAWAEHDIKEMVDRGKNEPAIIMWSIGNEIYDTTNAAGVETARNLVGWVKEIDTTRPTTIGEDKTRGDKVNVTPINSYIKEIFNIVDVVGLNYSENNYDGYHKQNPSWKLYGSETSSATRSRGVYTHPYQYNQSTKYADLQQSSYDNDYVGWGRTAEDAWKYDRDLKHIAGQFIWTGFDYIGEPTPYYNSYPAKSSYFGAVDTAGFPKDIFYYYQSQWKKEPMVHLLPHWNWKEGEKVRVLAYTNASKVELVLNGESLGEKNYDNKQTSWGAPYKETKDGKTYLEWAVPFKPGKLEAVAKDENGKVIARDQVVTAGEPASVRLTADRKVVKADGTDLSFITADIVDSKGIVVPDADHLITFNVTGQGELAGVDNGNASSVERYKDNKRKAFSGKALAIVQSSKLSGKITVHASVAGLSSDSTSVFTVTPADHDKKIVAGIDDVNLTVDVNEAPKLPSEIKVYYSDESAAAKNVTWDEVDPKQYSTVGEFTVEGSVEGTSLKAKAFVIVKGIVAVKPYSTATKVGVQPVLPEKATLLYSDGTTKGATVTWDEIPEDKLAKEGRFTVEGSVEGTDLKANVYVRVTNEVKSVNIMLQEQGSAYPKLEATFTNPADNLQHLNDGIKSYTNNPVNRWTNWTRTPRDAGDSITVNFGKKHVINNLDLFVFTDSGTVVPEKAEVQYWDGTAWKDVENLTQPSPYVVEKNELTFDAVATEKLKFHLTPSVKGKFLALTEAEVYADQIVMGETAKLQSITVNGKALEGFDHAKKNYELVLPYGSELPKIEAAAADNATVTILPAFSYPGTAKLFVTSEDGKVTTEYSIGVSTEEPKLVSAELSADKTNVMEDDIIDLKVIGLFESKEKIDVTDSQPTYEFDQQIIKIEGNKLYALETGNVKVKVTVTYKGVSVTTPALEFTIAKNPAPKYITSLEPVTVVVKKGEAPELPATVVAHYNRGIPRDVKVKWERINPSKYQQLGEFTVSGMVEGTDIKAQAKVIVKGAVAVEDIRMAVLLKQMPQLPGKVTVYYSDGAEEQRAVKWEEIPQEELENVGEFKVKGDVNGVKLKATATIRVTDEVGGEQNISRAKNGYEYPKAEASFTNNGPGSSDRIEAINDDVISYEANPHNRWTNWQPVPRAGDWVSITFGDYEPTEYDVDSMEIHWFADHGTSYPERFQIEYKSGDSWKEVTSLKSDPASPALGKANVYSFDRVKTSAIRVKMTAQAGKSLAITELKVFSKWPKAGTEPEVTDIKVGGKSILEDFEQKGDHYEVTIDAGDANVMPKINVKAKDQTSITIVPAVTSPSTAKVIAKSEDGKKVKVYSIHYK

Lactolysis (%): 76 ± 1%
Structure (SMILES): OC[C@H]1O[C@@H](O[C@H]2[C@H](O)[C@@H](O)C(O)O[C@@H]2CO)[C@H](O)[C@@H](O)[C@H]1O (stereo partly shown) [lactose]
